20 compounds from patent publication US5969115A, “Bisazo dyes and their preparation and use” (Ilford Imaging Switzerland GMBH, priority 1997, dated 1999) can be followed below.

Common to all, as to assay type: physicochemical
Data set [1] in a line: Absorption maximum in water. The text has this: The absorption maxima and the results of the tests (B) to (D) are listed in Table 6 for the dyes of the invention and in Table 7 for the dyes that are state of the art.
Data set [2] can be described thus: Color co-ordinates (L*a*b*) of printed samples. To be noted: for neutral black (color co-ordinates): in words. Here is the method:
(§1) The present invention, as far as it relates to inks, is further illustrated by the following examples using dyes according to our invention described in Tables 1 and 2 and dyes representing the state of the art described in Tables 3 and 4. 100 g of each ink were prepared by heating the necessary amount of dye (3-7 g), glycerol (5 g), tetraethylenglycol (1.1 g). and a biocide solution (Promexal X50, available from Zeneca, Manchester, England) (1.2 g) together with water at a temperature of 50° C. under stirring for one hour. The resulting solution was cooled down to 20° C., pH was adjusted to 7.5 and passed through a Millipore® filter of 0.5 μm pore diameter. The dye quantity was adjusted in a way that the density of the printed images was the same for all dyes.
(§2) 30 g of gelatin with a high isoelectric point (type St 70,810, available from Deutsche Gelatinefabriken, Eberbach, Germany) were dissolved in 360 ml of deionised water. 1 g of a surfactant (Olin 10G, available from Olin Corporation, Norwalk, USA) were added to this solution. Immediately before coating 6.6 g of a solution of 2-(4-dimethyl-carbamoyl-pyridino)-ethanesulfonate (3%) were added and pH was adjusted to 6.5. 100 g/m^2 of this solution was then coated onto a resin coated paper support using a bar coater. The recording medium prepared in this way was dried for 12 hours.
(§3) The inks were then jetted onto this recording medium with an HP560 ink jet printer from Hewlett-Packard. The properties of the printed samples were evaluated later on.
L*a*b*-values were measured on printed samples using a Gretag SPM 100 spectrometer, available from Gretag AG, Regensdorf, Switzerland.
Black dyes show a neutral hue if the values of a* and b*out of the L*a*b* color co-ordinates are zero.

Data set [3] can be described thus: Light fastness of printed samples (density loss after xenon lamp irradiation). To be noted: for Density loss in %: xenon lamp, total illumination 20 kJoule/cm^2; for light fastness: printed samples, in words. How it is done:
as §1, §2, §3
The printed samples were irradiated in an Atlas Ci35A Weather-O-Meter® with a r 6500 W Xenon lamp until a total illumination of 20 kJoule/cm^2 was reached. The density loss was measured with an X-Rite® densitometer. It is expressed as % loss of initial density.

Molecules are shown by their SMILES.

Consider `O=C(O)CCC(NC(=O)c1ccc(N=Nc2ccc(N=Nc3c(S(=O)(=O)O)cc4ccc(NCCS(=O)(=O)O)cc4c3O)c3cc(S(=O)(=O)O)ccc23)cc1)C(=O)O` (stereo not drawn) [Compound 14], for which the “HD max in water” value in data set [1] (Table 6) was 576 nm. Further, in data set [2] (Table 6), the “L*a*b*-value: L*” value turned out to be 19.5, the “L*a*b*-value: a*” value amounted to 7.5 and the “L*a*b*-value: b*” value was 2.4. For the same compound, in data set [3] (Table 6), the “Density loss in %” value is 2%.

Turning to `O=S(=O)(O)CCNc1ccc2cc(S(=O)(=O)O)c(N=Nc3ccc(N=Nc4cccc(S(=O)(=O)O)c4)c4cc(S(=O)(=O)O)ccc34)c(O)c2c1` [Compound 6], in data set [1] (Table 6), the “HD max in water” value is recorded as 573 nm. Also, in data set [2] (Table 6), the “L*a*b*-value: L*” value turned out to be 7.5, the “L*a*b*-value: a*” value is on record as 14.6 and the “L*a*b*-value: b*” value was -6.4. For the same compound, the “Density loss in %” value in data set [3] (Table 6) turned out to be 8%.

As for `O=S(=O)(O)CCNc1ccc2cc(S(=O)(=O)O)c(N=Nc3ccc(N=Nc4cccc(CO)c4)c4ccc(S(=O)(=O)O)cc34)c(O)c2c1` [Compound 1], the “HD max in water” value in data set [1] (Table 6) came to 582 nm. In data set [1] (second value of the cell, Table 6), the “HD max in water (second maximum)” value was 440 nm.

With `O=P(O)(O)Cc1ccc(N=Nc2ccc(N=Nc3c(S(=O)(=O)O)cc4ccc(NCCS(=O)(=O)O)cc4c3O)c3cc(S(=O)(=O)O)ccc23)cc1` [Compound 10], in data set [1] (Table 6), the “HD max in water” value is recorded as 578 nm. Further, in data set [2] (Table 6), the “L*a*b*-value: L*” value is listed as 2.0, the “L*a*b*-value: a*” value is given as 1.5 and the “L*a*b*-value: b*” value stood at 0.1. In data set [3] (Table 6), the “Density loss in %” value amounted to 13%.

Take `O=S(=O)(O)CCNc1ccc2cc(S(=O)(=O)O)c(N=Nc3ccc(N=Nc4ccc(S(=O)(=O)O)cc4)c4cc(S(=O)(=O)O)ccc34)c(O)c2c1` [Compound 4]: the “HD max in water” value in data set [1] (Table 6) was determined as 577 nm. In data set [2] (Table 6), the “L*a*b*-value: L*” value was 8.9, the “L*a*b*-value: a*” value is listed as 14.4 and the “L*a*b*-value: b*” value was -7.5. Moreover, the “Density loss in %” value in data set [3] (Table 6) is given as 7%.

On to `O=S(=O)(O)CCNc1ccc2cc(S(=O)(=O)O)c(N=Nc3ccc(N=Nc4ccc(CCO)cc4)c4ccc(S(=O)(=O)O)cc34)c(O)c2c1` [Compound 11], for which, in data set [1] (Table 6), the “HD max in water” value came out at 577 nm. Besides, in data set [2] (Table 6), the “L*a*b*-value: L*” value was 18.3, the “L*a*b*-value: a*” value is listed as 4.2 and the “L*a*b*-value: b*” value is recorded as -3.1. Moreover, in data set [3] (Table 6), the “Density loss in %” value amounted to 11%.

As to `Nc1ccc2cc(S(=O)(=O)O)c(N=Nc3ccc(N=Nc4cccc(C(=O)O)c4)c4ccc(S(=O)(=O)O)cc34)c(O)c2c1` [Compound 23, reference compound], the “HD max in water” value in data set [1] (state of the art dyes, Table 7) came out at 570 nm. Also, the “Density loss in %” value in data set [3] (state of the art dyes, Table 7) amounted to 2%.

Take `O=S(=O)(O)CCNc1ccc2cc(S(=O)(=O)O)c(N=Nc3ccc(N=Nc4ccc(CS(=O)(=O)O)cc4)c4cc(S(=O)(=O)O)ccc34)c(O)c2c1` [Compound 9]: in data set [1] (Table 6), the “HD max in water” value is recorded as 575 nm. Besides, in data set [2] (Table 6), the “L*a*b*-value: L*” value is recorded as 22.9, the “L*a*b*-value: a*” value worked out at 11.0 and the “L*a*b*-value: b*” value was -5.2. Besides, the “Density loss in %” value in data set [3] (Table 6) came out at 14%.

Regarding `O=C(O)CCc1ccc(N=Nc2ccc(N=Nc3c(S(=O)(=O)O)cc4ccc(NCCS(=O)(=O)O)cc4c3O)c3cc(S(=O)(=O)O)ccc23)cc1` [Compound 12], the “HD max in water” value in data set [1] (Table 6) came to 576 nm. For the same compound, in data set [2] (Table 6), the “L*a*b*-value: L*” value stood at 12.1, the “L*a*b*-value: a*” value was found to be 3.8 and the “L*a*b*-value: b*” value is recorded as -3.1. Also, the “neutral black (color co-ordinates)” value in data set [2] was “neutral blacks”. Moreover, in data set [3], the light fastness result is on record as “excellent light fastness”. Further, in data set [3] (Table 6), the “Density loss in %” value worked out at 4%.

For `Nc1ccc2cc(S(=O)(=O)O)cc(O)c2c1N=Nc1ccc(N=Nc2ccc(O)c(C(=O)O)c2)c2ccc(S(=O)(=O)O)cc12` [Compound 28, reference compound], in data set [2] (state of the art dyes, Table 7), the “L*a*b*-value: L*” value was 18.8, the “L*a*b*-value: a*” value is on record as 18.1 and the “L*a*b*-value: b*” value is on record as -4.1.

For the compound `O=C(O)CCc1cccc(N=Nc2ccc(N=Nc3c(S(=O)(=O)O)cc4ccc(NCCS(=O)(=O)O)cc4c3O)c3cc(S(=O)(=O)O)ccc23)c1` [Compound 13], the “HD max in water” value in data set [1] (Table 6) is recorded as 575 nm. Further, the “Density loss in %” value in data set [3] (Table 6) amounted to 4%.

Regarding `O=C(O)CCNc1ccc2cc(S(=O)(=O)O)c(N=Nc3ccc(N=Nc4ccc(C(=O)O)cc4)c4ccc(S(=O)(=O)O)cc34)c(O)c2c1` [Compound 27, reference compound], in data set [1] (state of the art dyes, Table 7), the “HD max in water” value worked out at 564 nm. In addition, in data set [2] (state of the art dyes, Table 7), the “L*a*b*-value: L*” value was found to be 23.7, the “L*a*b*-value: a*” value is recorded as 15.1 and the “L*a*b*-value: b*” value is recorded as -16.6. Also, the “Density loss in %” value in data set [3] (state of the art dyes, Table 7) amounted to 12%.

As to `O=S(=O)(O)CCNc1ccc2cc(S(=O)(=O)O)c(N=Nc3ccc(N=Nc4cc(Cl)c(S(=O)(=O)O)cc4Cl)c4ccc(S(=O)(=O)O)cc34)c(O)c2c1` [Compound 18], the “HD max in water” value in data set [1] (Table 6) was 553 nm. Besides, in data set [2] (Table 6), the “L*a*b*-value: L*” value is listed as 3.5, the “L*a*b*-value: a*” value is listed as 4.4 and the “L*a*b*-value: b*” value was 0.3. Moreover, the “neutral black (color co-ordinates)” value in data set [2] is recorded as “neutral blacks”. The light fastness result in data set [3] is reported as “excellent light fastness”. In addition, the “Density loss in %” value in data set [3] (Table 6) was 5%.

`O=C(O)c1cc(N=Nc2ccc(N=Nc3c(S(=O)(=O)O)cc4ccc(NCCS(=O)(=O)O)cc4c3O)c3ccc(S(=O)(=O)O)cc23)cc(C(=O)O)c1` [Compound 17]: the “HD max in water” value in data set [1] (Table 6) was 568 nm. In data set [2] (Table 6), the “L*a*b*-value: L*” value was 5.7, the “L*a*b*-value: a*” value came out at 2.6 and the “L*a*b*-value: b*” value came to 2.3. Besides, in data set [3] (Table 6), the “Density loss in %” value came to 2%.

As to `O=S(=O)(O)CCNc1ccc2cc(S(=O)(=O)O)c(N=Nc3ccc(N=Nc4cc(S(=O)(=O)O)c5cccc(S(=O)(=O)O)c5c4)c4ccc(S(=O)(=O)O)cc34)c(O)c2c1` [Compound 19], the “HD max in water” value in data set [1] (Table 6) amounted to 581 nm. Further, the “Density loss in %” value in data set [3] (Table 6) came out at 1%.

Turning to `O=S(=O)(O)CCNc1ccc2cc(S(=O)(=O)O)c(N=Nc3ccc(N=Nc4ccc5c(S(=O)(=O)O)cc(S(=O)(=O)O)cc5c4)c4ccc(S(=O)(=O)O)cc34)c(O)c2c1` [Compound 20], the “HD max in water” value in data set [1] (Table 6) amounted to 582 nm. Further, in data set [2] (Table 6), the “L*a*b*-value: L*” value worked out at 9.4, the “L*a*b*-value: a*” value came to 3.8 and the “L*a*b*-value: b*” value is -3.6. The “neutral black (color co-ordinates)” value in data set [2] is “neutral blacks”. Also, the light fastness result in data set [3] is given as “excellent light fastness”. Moreover, the “Density loss in %” value in data set [3] (Table 6) is on record as 3%.

With `O=C(O)Cc1ccc(N=Nc2ccc(N=Nc3c(S(=O)(=O)O)cc4ccc(NCCS(=O)(=O)O)cc4c3O)c3cc(S(=O)(=O)O)ccc23)cc1` [Compound 7], the “HD max in water” value in data set [1] (Table 6) was found to be 576 nm. In data set [2] (Table 6), the “L*a*b*-value: L*” value stood at 15.5, the “L*a*b*-value: a*” value came out at 5.2 and the “L*a*b*-value: b*” value is given as -5.9. The “neutral black (color co-ordinates)” value in data set [2] is recorded as “neutral blacks”. Also, in data set [3], the light fastness result is recorded as “excellent light fastness”. Moreover, the “Density loss in %” value in data set [3] (Table 6) stood at 1%.

In the case of `Nc1ccc2cc(S(=O)(=O)O)c(N=Nc3ccc(N=Nc4cc(C(=O)O)cc(C(=O)O)c4)c4cc(S(=O)(=O)O)ccc34)c(O)c2c1` [Compound 25, reference compound], the “HD max in water” value in data set [1] (state of the art dyes, Table 7) is on record as 556 nm. In addition, in data set [2] (state of the art dyes, Table 7), the “L*a*b*-value: L*” value came out at 10.6, the “L*a*b*-value: a*” value came out at 11.7 and the “L*a*b*-value: b*” value is listed as -0.6. Besides, the “Density loss in %” value in data set [3] (state of the art dyes, Table 7) is recorded as 2%.

With `O=C(O)c1ccc(N=Nc2ccc(N=Nc3c(S(=O)(=O)O)cc4ccc(NCCS(=O)(=O)O)cc4c3O)c3cc(S(=O)(=O)O)ccc23)cc1Cl` [Compound 15], in data set [1] (Table 6), the “HD max in water” value is listed as 590 nm. Moreover, in data set [2] (Table 6), the “L*a*b*-value: L*” value came to 4.7, the “L*a*b*-value: a*” value was found to be 4.5 and the “L*a*b*-value: b*” value is reported as -1.7. Besides, the “neutral black (color co-ordinates)” value in data set [2] is “neutral blacks”. Further, the light fastness entry in data set [3] is “excellent light fastness”. For the same compound, the “Density loss in %” value in data set [3] (Table 6) is given as 8%.

For the compound `O=C(O)c1cccc(N=Nc2ccc(N=Nc3c(S(=O)(=O)O)cc4ccc(NCCS(=O)(=O)O)cc4c3O)c3cc(S(=O)(=O)O)ccc23)c1` [Compound 2], the “HD max in water” value in data set [1] (Table 6) is recorded as 573 nm. Besides, in data set [2] (Table 6), the “L*a*b*-value: L*” value stood at 2.1, the “L*a*b*-value: a*” value is 2.0 and the “L*a*b*-value: b*” value is reported as 0.3. Besides, in data set [3] (Table 6), the “Density loss in %” value was 0%.
